Literature values, collected in patent publication US20250057829A1, “INHIBITORS OF TRPC6 FOR TREATING FOCAL SEGMENTAL GLOMERULOSCLEROSIS” (Boehringer Ingelheim International GmbH, priority 2023, published 2025).

System: adults and children with steroid resistant FSGS
Details: week 8, follow-up vs. baseline; cited from earlier work

## mycophenolate mofetil/dexamethasone [MMF/DEX]
  reduction of UPCR: ~50%
